Assay: in vitro
Conditions: human, hela cells, % viability

SMILES	viability at 28.5 h, 10 µM	viability at 28.5 h, 10 µM (bulk resorufin, single well)
Cc1cc(C)cc(/N=C2\NC(=O)C(CC(=O)O)S2)c1 (stereo not shown) [CBK286878]	91.4%	–
CN(C)CCN(C)c1cncc(-c2cccc(N)c2)n1 [CBK065270]	87.3%	–
Cc1nc(C(F)(F)F)ccc1C(=O)N(C)CCN1CCCCC1 [CBK281917]	87.3%	–
Cc1cc(F)ccc1OC1(C(=O)O)CCN(Cc2ccoc2)CC1 [CBK307187]	104%	–
O=C(NCCc1c[nH]c2ccccc12)c1cccs1 [CBK231038]	88.2%	–
CCOC(=O)C1(N)CCCC1 [CBK073836C]	94.4%	–
COc1cccc(C(=O)Nc2ccc(Br)cc2C(=O)O)c1 [CBK022487]	98.7%	–
Cc1c(C(=O)N(C)Cc2cccn2C)[nH]c2ccccc12 [CBK283270]	94.6%	–
CC(C)C1C(=O)Nc2ccccc2N1C(=O)NCCC(=O)O (stereo not shown) [CBK286659]	87.4%	–
O=c1[nH]c(=O)c2cc(S(=O)(=O)NCC3(N4CCOCC4)CCCCC3)ccc2[nH]1 [CBK286390]	105%	–
CC(C)Nc1nc(-c2cccnc2)cn2ccnc12 [CBK093608]	96.6%	–
O=C(C1CCC1)N1CCC(c2nnc(-c3ccsc3)o2)CC1 [CBK283405]	104%	–
O=C(Nc1cccnc1)C1CCN(C(=O)OCc2ccccc2)CC1 [CBK083187]	90.6%	–
CC(C)=NNC(=O)Nc1nonc1N [CBK027368]	99.2%	–
Cc1nc2ccccc2n1CC(=O)N(CCC#N)Cc1ccco1 [CBK306323]	86.1%	–
COc1ccc([C@@]23CC[C@@H](NC(=O)Nc4ccc(F)c(F)c4)C[C@@H]2N(C)CC3)c(F)c1OC [CBK067405]	102%	–
Cc1cc(S(=O)(=O)Nc2cccc(C(=O)O)c2)c(C)c(S(=O)(=O)c2ccccc2)c1 [CBK263227]	88.3%	–
O=C(O)CCc1nc2ccccc2s1 [CBK264071]	115%	–
Cc1c(-c2cccc(C(=O)N(CCO)C3CCS(=O)(=O)C3)c2)cnn1C (stereo not shown) [CBK307621]	86.5%	–
NC(=O)c1ccc(C(=O)OCc2ccc(-c3ccccc3)cc2)cc1 [CBK297736]	95.7%	–
CC1(C)CC(=O)c2sc(NC(=O)C3CC3)nc2C1 [CBK287329]	104%	–
CC(C)Nc1cc(OC2CCN(C)CC2)ncn1 [CBK113280]	83.6%	–
Cc1cn(C2CC(O)C(C3N(c4ccccc4)CCN3c3ccccc3)O2)c(=O)[nH]c1=O (stereo not shown) [CBK201232]	99.2%	–

SMILES	viability at 28.5 h, 10 µM	viability at 28.5 h, 10 µM (bulk resorufin, single well)
CN(C)CCN(C)c1cc(-c2cccc(Br)c2)nc2ccnn12 [CBK037140]	106%	–
O=C(NCc1nc2ccccc2[nH]1)c1ccc2[nH]ccc2c1 [CBK149079]	89%	–
CN1CCOc2cc(S(=O)(=O)Nc3cccnc3N3CCOCC3)ccc21 [CBK062299]	108%	–
O=S(=O)(Nc1cccc(O)c1)c1ccc(OC(F)(F)F)cc1 [CBK043822]	108%	–
O=C(Nc1ccccc1C(=O)O)c1ccccc1O [CBK012116]	89%	–
CC(=O)N1CCN(c2nnc(-c3ccccc3)o2)CC1 [CBK170332]	87.9%	–
Cc1ncsc1CCC(=O)NCC1CCN(c2ccccc2F)C1 (stereo not shown) [CBK304675]	96.5%	–
O=C(O)CCC(=O)N1CCN(Cc2ccc(Cl)cc2)CC1 [CBK286852]	90%	–
Brc1ccc2c(c1)[C@H]1C=CC[C@H]1[C@@H](c1ccccc1)N2 [CBK303238]	89%	–
CCOc1ncccc1C(=O)OCc1cc2ccc(OC)cc2nc1Cl [CBK295289]	78.1%	–
CC1=CC(=O)Nc2ccccc2S1 [CBK028872]	118%	–
NC(=O)C1(N2CCCCC2)CCN(CC(=O)Nc2ccccc2Sc2ccccc2)CC1 [CBK268488]	94.7%	–
CCCN1C(=O)c2ccc(C(=O)Nc3cc(C(=O)O)cc(C(=O)O)c3)cc2C1=O [CBK266441]	97%	–
COc1ccc2[nH]c(NCCCO)nc2c1 [CBK264155]	91.2%	–
O=C(CC(CN1CCN(Cc2ccccn2)CC1)C(=O)O)Nc1ccc(F)cc1 (stereo not shown) [CBK286800]	86.8%	–
O=C(CNC(=O)c1ccccc1)N/N=C/c1ccc(Br)cc1 [CBK260957]	103%	–
O=[N+]([O-])c1ccc(Sc2ccccc2C2=NCCCN2)nc1 [CBK006747C]	101%	–
CN(Cc1ccccc1)c1nc2c(c(=O)n(C)c(=O)n2C)n1CCSc1ncccn1 [CBK269564]	97.7%	–
COC(=O)c1ccccc1NC(=O)COc1ccc(Br)c(C)c1 [CBK263152]	89.4%	–
O=C(c1ccco1)N1CCC[C@@H]1[C@@H](O)c1cccs1 [CBK284291]	80.7%	–
COCCc1nc(CN(C)C)n(Cc2ccccc2C)n1 [CBK307014]	87.8%	–
COc1cccc(C(=O)Nc2nc(-c3ccccc3)cs2)c1OC [CBK287697]	104%	–
Cc1nc(Nc2ccc(Cl)cc2)nc(OC2CCNCC2)n1 [CBK024848]	90.5%	–

SMILES	viability at 28.5 h, 10 µM	viability at 28.5 h, 10 µM (bulk resorufin, single well)
O=[N+]([O-])c1ccccc1S(=O)(=O)N1CCN(Cc2cccc(Oc3ccccc3)c2)CC1 [CBK264283]	98.9%	–
Fc1ccc(Br)cc1SCCc1ccccn1 [CBK262330G]	86.7%	–
CN(c1ccccc1)S(=O)(=O)c1cccc(NC(=O)c2ccc(=O)[nH]n2)c1 [CBK297091]	96.3%	–
CN(C)c1ccc(-c2ncnn2CC(F)(F)F)cn1 [CBK307215]	88%	–
Nc1nonc1NC(=O)N/N=C/c1ccc(C(F)(F)F)cc1 [CBK261813]	99.8%	–
COc1ccccc1C(NC(=O)C1CCN(C(=O)OC(C)C)CC1)c1ccccn1 (stereo not shown) [CBK059649]	111%	–
COc1cccc(-c2nc(-c3ccc4[nH]c(=O)[nH]c4c3)cs2)c1OC [CBK298271]	108%	–
c1cc(CCNc2cc(-c3ccc4c(c3)OCO4)ncn2)ccn1 [CBK037689]	99.5%	–
CC(Oc1cccc(C#N)c1)C(=O)NCC1(N2CCOCC2)CCSC1 (stereo not shown) [CBK305780]	94.8%	–
COc1cccc(N2CC(C(=O)Nc3cccc(C(=O)O)c3)CC2=O)c1 (stereo not shown) [CBK286612]	99.7%	–
Cc1noc([C@@H]2C[C@H](NC(=O)Nc3cccc(C#N)c3)CN2C)n1 [CBK288873]	104%	–
CC(=O)c1c(C)nn2c3ccccc3n(CCN3CCOCC3)c12 [CBK262709C]	115%	–
COc1cccc(CCN(Cc2ccc(S(=O)(=O)N3CCOC3=O)cc2)Cc2cccc(OCCO)c2)c1 [CBK014806]	98.5%	–
O=S(=O)(Nc1cccc(C(F)(F)F)c1)c1ccc(N2CCCNCC2)c2ccccc12 [CBK003929C]	86.4%	–
CNCC(=O)N(CCc1cc(C(F)(F)F)cc(C(F)(F)F)c1)c1ccc2c(c1)OCO2 [CBK001038T]	120%	–
COc1cc(C)c(CN2CCN(S(=O)(=O)c3cc(C(=O)O)cs3)CC2)cc1OC [CBK297093]	97.2%	–
CC1=CC(C)(NC(N)=O)NC(=S)N1 (stereo not shown) [CBK020817]	112%	–
CCn1c(CN2CCOCC2)nnc1SCC(=O)Nc1cc(Cl)ccc1C [CBK270183]	93.8%	–
COc1cccc(C(=O)NNC(=O)c2ccc(F)cc2)c1 [CBK261705]	106%	–
CC(=O)Nc1ccc(OCC(O)Cn2ncc3ccccc3c2=O)cc1 (stereo not shown) [CBK305567]	105%	–
CCN(Cc1ccncc1)C(=O)NCCN1CCOCC1 [CBK145055]	92.1%	–
CCN(CC)CCNC(=O)CN1CCCC1=O [CBK261312]	–	84.6%
CC(C)[C@@H](CO)Nc1nccnc1-c1ccoc1 [CBK036648]	86.6%	–

SMILES	viability at 28.5 h, 10 µM	viability at 28.5 h, 10 µM (bulk resorufin, single well)
CCc1ccc(OCC(=O)NC(=S)Nc2cccc3nsnc23)cc1 [CBK267173]	100%	–
Cc1oc2cc(OCC(=O)NCC(=O)O)ccc2c(=O)c1-c1ccc(Cl)cc1 [CBK286697]	99.6%	–
CC(C)n1c(=O)n(CC(=O)NCc2ccccc2)c2cccnc21 [CBK283758]	99.8%	–
O=C(CSc1nnc(-c2ccncc2)n1-c1ccccc1)N/N=C/c1ccccc1O [CBK262788]	85%	–
CN(C(=O)c1cccs1)c1ccc(Oc2ncc(C(F)(F)F)cc2Cl)cc1 [CBK161654]	89.6%	–
CCC(=O)N1C[C@@H](N(C)C)[C@H](c2cn(C)c3ccccc23)C1 [CBK285008]	91.3%	–
Cc1n[nH]c(C)c1CCC(=O)N/N=C\c1cccc(Oc2ccccc2)c1 [CBK263384]	98.8%	–
CC1CCN(C(=O)c2cc(-c3ccco3)[nH]n2)CC1 [CBK296648]	101%	–
COCC(O)CN(C)C(=O)c1ccc(Oc2cccc(Br)c2)nc1 (stereo not shown) [CBK304229]	94%	–
COCC1CCCN1C(=O)c1cnn2c(C)c(Cc3ccccc3)c(C)nc12 (stereo not shown) [CBK162213]	93.9%	–
Cc1c(C(=O)N(C)CC(C)C)nnn1-c1ccc2ncccc2c1 [CBK305161]	102%	–
Oc1ccc(Cl)cc1/C=N/c1ccc(-c2cc(-c3ccc(/N=C/c4cc(Cl)ccc4O)cc3)ncn2)cc1 [CBK261626]	101%	–
Cc1ccccc1-c1ocnc1C(=O)NCc1ccco1 [CBK282408]	84.5%	–
CCN(CC)CCN(C(=O)Nc1ccc(C(N)=O)cc1)C(C)c1ccc(OC)c(OC)c1 (stereo not shown) [CBK158962]	108%	–
Cc1cc(C)n(CC(=O)NCC(c2c(F)cccc2F)N(C)C)n1 (stereo not shown) [CBK305510]	96.7%	–
CN1C[C@]2(CC[C@@H](C(=O)NC3CC3)CC2)Oc2ccccc2C1=O [CBK282610]	102%	–
c1ccc2c(c1)/C(=N/OCCN1CCCC1)CC21CCCCC1 [CBK013322]	110%	–
CN1CCN(C)C(COc2cc(C(F)(F)F)ccn2)C1 (stereo not shown) [CBK113460]	90.7%	–
Cc1ccc(-c2cncc(N3CCN(CCO)CC3)n2)cc1C [CBK065912]	102%	–
O=C1NC2(CCCCC2)C(=O)N1c1cccc(Cl)c1 [CBK287969]	94.3%	–
COc1ccc(O)c(C(=O)c2cnn(C(=O)c3ccc(C)cc3)c2)c1 [CBK297546]	86.3%	–
CS(=O)(=O)N1CC2(CCN(CCCC#N)CC2)c2ccccc21 [CBK084014]	97.9%	–

Source: paper PMC12040169 (PLOS Biology, 2025)
